In patent US6362369B1, “Phthalic acid diamide derivatives fluorine-containing aniline compounds as starting material, agricultural and horticultural insecticides, and a method for application of the insecticides” (Nihon Nohyaku Co., Ltd., priority 1997, dated 2002):

What was measured:
Type in all cases: in vivo
[1] = tested on: rice leafroller (Cnaphalocrocis medinalis); experiment: Insecticidal effect on rice leafroller (Test Example 3); conditions: 500 ppm, rice lamina dip, third-instar larvae of rice leafroller, 4 days after inoculation, 25° C., humidity 70%
Summary of the method: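 Insecticidal effect is judged by a predefined criterion from dead/alive counts four days after infesting air-dried lamina with third-instar larvae, kept on moistened filter paper at 25° C, 70% humidity.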

[2] = tested on: common cutworm (Spodoptera Litura); experiment: Insecticidal effect on common cutworm (Test Example 2); conditions: 500 ppm, cabbage leaf dip, second-instar larvae of common cutworm, 8 days after inoculation, 25° C.
Summary of the method: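 Second-instar larvae placed in 9 cm Petri dishes with air-dried treated material, held at 25 °C. Dead and live insects counted 8 days after inoculation; mortality calculated and scored against a set criterion. Triplicate groups of 10 insects.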

[3] = tested on: diamondback moth (Plutella xylostella); experiment: Insecticidal effect on diamondback moth (Test Example 1); conditions: diamondback moth; judged by the criterion of Test Example 1
Summary of the method: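 Triplicate groups of 10 insects were scored: six days after immersion of oviposited Chinese cabbage seedlings and holding at 25 °C post air-drying, hatched larvae were counted. Mortality derived from these counts and insecticidal effect judged by a set criterion.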

Row | Compound | Insecticidal effect (Test Example 3), judged from mortality [1] | Insecticidal effect (Test Example 2), judged from mortality [2] | Insecticidal effect (Test Example 1), judged from mortality [3]
1 | Cc1cc(NC(=O)c2cccc(I)c2C(=O)NC(C)C)ccc1C(F)(F)C(F)(F)F [compound 1563] | A (100) | A (100) | A (100)
2 | CCC(C)(C)NC(=O)c1c(I)cccc1C(=O)Nc1ccc(C(F)(F)C(F)(F)F)cc1C [compound 1565] | A (100) | A (100) | A (100)
3 | CCC(C)(C)NC(=O)c1c(I)cccc1C(=O)Nc1ccc(OC(F)(F)F)cc1C [compound 1566] | A (100) | A (100) | A (100)
4 | CCC(C)(C)NC(=O)c1c(I)cccc1C(=O)Nc1ccc(OC(F)F)cc1C [compound 1568] | A (100) | A (100) | A (100)
5 | C=CC(C)(C)NC(=O)c1c(Cl)cccc1C(=O)Nc1ccc(C(F)(F)C(F)(F)F)cc1C [compound 1569] | A (100) | A (100) | A (100)
6 | Cc1cc(C(F)(F)C(F)(F)F)ccc1NC(=O)c1cccc(Cl)c1C(=O)NC(C)(C)C#Cc1ccc(Cl)cc1Cl [compound 1571] | A (100) | A (100) | A (100)
7 | COc1ccc(C#CC(C)(C)NC(=O)c2c(Cl)cccc2C(=O)Nc2ccc(C(F)(F)C(F)(F)F)cc2C)cc1 [compound 1572] | A (100) | A (100) | A (100)
8 | CCCN(CC)C(=O)c1c(I)cccc1C(=O)Nc1ccc(C(F)(F)C(F)(F)F)cc1C [compound 1573] | A (100) | A (100) | A (100)
9 | CCCN(CC)C(=O)c1c(I)cccc1C(=O)Nc1ccc(OC(F)(F)F)cc1C [compound 1574] | A (100) | A (100) | A (100)
10 | Cc1cc(C(F)(F)C(F)(F)F)ccc1NC(=O)c1cccc(Cl)c1C(=O)NCc1ccc(OC(F)(F)F)cc1 [compound 1576] | A (100) | D (79-50) | A (100)
11 | CC(C)NC(=O)c1c(I)cccc1C(=O)Nc1ccc(C(F)(F)C(F)(F)F)cc1Br [compound 1580] | A (100) | A (100) | A (100)
12 | CCCN(CC)C(=O)c1c(F)cccc1C(=O)Nc1ccc(C(F)(F)C(F)(F)F)cc1C [compound 1581] | A (100) | A (100) | A (100)
13 | Cc1cc(C(F)(F)C(F)(F)F)ccc1NC(=O)c1cccc(Cl)c1C(=O)NC(C)(C)C#Cc1ccc(C(F)(F)F)cc1 [compound 1585] | A (100) | A (100) | A (100)
14 | Cc1cc(C(F)(F)C(F)(F)F)ccc1NC(=O)c1cccc(Cl)c1C(=O)NC(C)(C)C#Cc1c(Cl)cccc1Cl [compound 1586] | A (100) | C (89-80) | A (100)
15 | Cc1cc(C(F)(F)C(F)(F)F)ccc1NC(=O)c1cccc(Cl)c1C(=O)NC(C)(C)C#Cc1ccccn1 [compound 1587] | A (100) | A (100) | A (100)
16 | Cc1cc(C(F)(F)C(F)(F)F)ccc1NC(=O)c1cccc(Cl)c1C(=O)NC(C)(C)C#Cc1cccnc1 [compound 1590] | A (100) | A (100) | A (100)
17 | C#CC(C)(C)NC(=O)c1c(Cl)cccc1C(=O)Nc1ccc(OC(F)(F)F)cc1C [compound 1602] | A (100) | A (100) | A (100)
18 | Cc1cc(C(F)(F)C(F)(F)F)ccc1NC(=O)c1cccc(Cl)c1C(=O)NC(C)(C)/C=C/c1ccccc1 [compound 1604] | A (100) | A (100) | A (100)

Row | Compound | Insecticidal effect (Test Example 3), judged from mortality [1] | Insecticidal effect (Test Example 2), judged from mortality [2] | Insecticidal effect (Test Example 1), judged from mortality [3]
19 | CCN(CC)C(=O)c1c(I)cccc1C(=O)Nc1ccc(-c2ccc(F)cc2)cc1C [compound 1614] | A (100) | C (89-80) | A (100)
20 | CCN(CC)C(=O)c1c(I)cccc1C(=O)Nc1ccc(-c2ccc(Cl)cc2)cc1C [compound 1615] | A (100) | A (100) | A (100)
21 | Cc1cc(Oc2ncccn2)ccc1NC(=O)c1cccc(I)c1C(=O)NC(C)C [compound 1618] | A (100) | C (89-80) | A (100)
22 | CC(C)NC(=O)c1c(I)cccc1C(=O)Nc1cc2c(cc1Cl)OC(F)(F)O2 [compound 1622] | A (100) | A (100) | A (100)
23 | CC(C)NC(=O)c1c(Cl)cccc1C(=O)Nc1cc2c(cc1Cl)OC(F)(F)O2 [compound 1623] | A (100) | C (89-80) | A (100)
24 | CC(C)(C)NC(=O)c1c(I)cccc1C(=O)Nc1cc2c(cc1Cl)OC(F)(F)O2 [compound 1624] | A (100) | D (79-50) | A (100)
25 | CC(C)NC(=O)c1c(I)cccc1C(=O)Nc1cc2c(cc1Cl)OC(F)(F)C(F)(F)O2 [compound 1625] | A (100) | A (100) | A (100)
26 | Cc1cc(OC(F)(F)F)ccc1NC(=O)c1cccc(I)c1C(=O)NC(C)(C)CCl [compound 1627] | A (100) | A (100) | A (100)
27 | Cc1cc(C(F)(F)C(F)(F)F)ccc1NC(=O)c1cccc(Cl)c1C(=O)NC(C)(C)C#Cc1ccsc1 [compound 1628] | A (100) | A (100) | A (100)
28 | C#CC(C)(C)NC(=O)c1c(I)cccc1C(=O)Nc1ccc(C(F)(F)C(F)(F)F)cc1C [compound 1629] | A (100) | A (100) | A (100)
29 | Cc1cc(C(F)(F)C(F)(F)F)ccc1NC(=O)c1cccc(Cl)c1C(=O)NC(C)(C)C#Cc1ccc(OC(F)(F)F)cc1 [compound 1633] | A (100) | A (100) | A (100)
30 | C#CC(C)(C)NC(=O)c1c(I)cccc1C(=O)Nc1ccc(OC(F)(F)F)cc1C [compound 1634] | A (100) | A (100) | A (100)
31 | C#CC(C)(C)NC(=O)c1c(I)cccc1C(=O)Nc1ccc(OC(F)F)cc1C [compound 1635] | A (100) | A (100) | A (100)
32 | CC(C)NC(=O)c1c(I)cccc1C(=O)Nc1ccc2nc(C(F)(F)C(F)(F)C(F)(F)F)oc2c1 [compound 1636] | A (100) | D (79-50) | A (100)
33 | CC(C)NC(=O)c1c(I)cccc1C(=O)Nc1ccc2oc(C(F)(F)C(F)(F)C(F)(F)F)nc2c1 [compound 1637] | A (100) | A (100) | A (100)
34 | CC(C)NC(=O)c1c(Cl)cccc1C(=O)Nc1ccc2oc(C(F)(F)C(F)(F)C(F)(F)F)nc2c1 [compound 1638] | A (100) | A (100) | A (100)
35 | CC(C)(C)NC(=O)c1c(I)cccc1C(=O)Nc1ccc2oc(C(F)(F)C(F)(F)C(F)(F)F)nc2c1 [compound 1639] | A (100) | A (100) | A (100)
